Experimental data taken from ChEMBL document CHEMBL1148088, “Vibrindole A, a metabolite of the marine bacterium, Vibrio parahaemolyticus, isolated from the toxic mucus of the boxfish Ostracion cubicus” (1994).

Legend:
Staphylococcus aureus = experiment: Antimicrobial activity against Staphylococcus aureus Sau1091-5 at 100 ug/disk; type: functional; details: read-out: IZ
Staphylococcus [1] = experiment: Antimicrobial activity against Staphylococcus albus Sal1091-4 at 100 ug/disk; type: functional; details: read-out: IZ
Bacillus subtilis = experiment: Antimicrobial activity against Bacillus subtilis Bs1091-1 at 100 ug/disk; type: functional; details: read-out: IZ
Staphylococcus [2] = experiment: Antimicrobial activity against Staphylococcus albus Sal1091-4 at […]; type: functional, organism-based

| Compound | zone of inhibition at 100 µg/disc (Staphylococcus aureus) | zone of inhibition at 100 µg/disc (Staphylococcus [1]) | zone of inhibition at 100 µg/disc (Bacillus subtilis) | inhibition zone (IZ) (Staphylococcus [2]) |
| --- | --- | --- | --- | --- |
| O=C1c2ccccc2NC1(c1c[nH]c2ccccc12)c1c[nH]c2ccccc12 | 11 mm |  |  |  |
| CC(c1c[nH]c2ccccc12)c1c[nH]c2ccccc12 [VIBRINDOLE A] | 11 mm | 11 mm | 7 mm |  |
| GENTAMICIN |  |  |  | 14 mm |
